Source: ChEMBL document CHEMBL4346657, “Anticancer activity, dual prooxidant/antioxidant effect and apoptosis induction profile of new bichalcophene-5-carboxamidines” (Eur J Med Chem, 2019)
pIC50: −log10 of the molar value.

Assays:
[1] = test system: WI-38; assay: Cytotoxicity activity against human WI38 cells assessed as reduction in cell viability measured after 48 hrs by MTT assay; format: cell-based; conditions: WI-38, 48 h
[2] = Selectivity index, ratio of IC50 for human WI38 cells to GI50 for human NCI60 cells
[3] = test system: Panel NCI-60 (60 carcinoma cell lines); assay: Antiproliferative activity against human NCI60 cells assessed as growth inhibition at 10 uM after 48 hrs by sulforhodamine B assay; format: functional; conditions: read-out: GI
[4] = test system: ACHN; assay: Antiproliferative activity against human ACHN cells assessed as growth inhibition after 48 hrs by sulforhodamine B assay; format: functional
[5] = test system: A498; assay: Antiproliferative activity against human A498 cells assessed as growth inhibition after 48 hrs by sulforhodamine B assay; format: functional; conditions: A498, 48 h
[6] = test system: NCI/ADR-RES; assay: Antiproliferative activity against human NCI-ADR-RES cells assessed as growth inhibition after 48 hrs by sulforhodamine B assay; format: functional
[7] = test system: IGROV-1; assay: Antiproliferative activity against human IGROV1 cells assessed as growth inhibition after 48 hrs by sulforhodamine B assay; format: functional; conditions: IGROV-1, 48 h
[8] = test system: UACC-62; assay: Antiproliferative activity against human UACC62 cells assessed as growth inhibition after 48 hrs by sulforhodamine B assay; format: functional; conditions: UACC-62, 48 h
[9] = test system: SK-MEL-5; assay: Antiproliferative activity against human SK-MEL-5 cells assessed as growth inhibition after 48 hrs by sulforhodamine B assay; format: functional; conditions: SK-MEL-5, 48 h
[10] = test system: SK-MEL-28; assay: Antiproliferative activity against human SK-MEL-28 cells assessed as growth inhibition after 48 hrs by sulforhodamine B assay; format: functional; conditions: SK-MEL-28, 48 h
[11] = test system: SK-MEL-2; assay: Antiproliferative activity against human SK-MEL-2 cells assessed as growth inhibition after 48 hrs by sulforhodamine B assay; format: functional; conditions: SK-MEL-2, 48 h
[12] = test system: M14; assay: Antiproliferative activity against human M14 cells assessed as growth inhibition after 48 hrs by sulforhodamine B assay; format: functional; conditions: M14, 48 h
[13] = test system: U-251; assay: Antiproliferative activity against human U251 cells assessed as growth inhibition after 48 hrs by sulforhodamine B assay; format: functional; conditions: U-251, 48 h
[14] = test system: SNB-19; assay: Antiproliferative activity against human SNB19 cells assessed as growth inhibition after 48 hrs by sulforhodamine B assay; format: functional; conditions: SNB-19, 48 h
[15] = test system: SF-295; assay: Antiproliferative activity against human SF295 cells assessed as growth inhibition after 48 hrs by sulforhodamine B assay; format: functional; conditions: SF-295, 48 h
[16] = test system: SW-620; assay: Antiproliferative activity against human SW620 cells assessed as growth inhibition after 48 hrs by sulforhodamine B assay; format: functional; conditions: SW-620, 48 h
[17] = test system: KM12; assay: Antiproliferative activity against human KM12 cells assessed as growth inhibition after 48 hrs by sulforhodamine B assay; format: functional; conditions: KM12, 48 h
[18] = test system: HT-29; assay: Antiproliferative activity against human HT-29 cells assessed as growth inhibition after 48 hrs by sulforhodamine B assay; format: functional; conditions: HT-29, 48 h
[19] = test system: HCT-116; assay: Antiproliferative activity against human HCT116 cells assessed as growth inhibition after 48 hrs by sulforhodamine B assay; format: functional; conditions: HCT-116, 48 h
[20] = test system: HCC 2998; assay: Antiproliferative activity against human HCC2998 cells assessed as growth inhibition after 48 hrs by sulforhodamine B assay; format: functional; conditions: HCC 2998, 48 h
[21] = test system: NCI-H522; assay: Antiproliferative activity against human NCI-H522 cells assessed as growth inhibition after 48 hrs by sulforhodamine B assay; format: functional; conditions: NCI-H522, 48 h
[22] = test system: NCI-H322M; assay: Antiproliferative activity against human NCI-H322M cells assessed as growth inhibition after 48 hrs by sulforhodamine B assay; format: functional
[23] = test system: NCI-H226; assay: Antiproliferative activity against human NCI-H226 cells assessed as growth inhibition after 48 hrs by sulforhodamine B assay; format: functional; conditions: NCI-H226, 48 h
[24] = test system: HOP-92; assay: Antiproliferative activity against human HOP92 cells assessed as growth inhibition after 48 hrs by sulforhodamine B assay; format: functional; conditions: HOP-92, 48 h
[25] = test system: SR; assay: Antiproliferative activity against human SR cells assessed as growth inhibition after 48 hrs by sulforhodamine B assay; format: functional
[26] = test system: RPMI-8226; assay: Antiproliferative activity against human RPMI8226 cells assessed as growth inhibition after 48 hrs by sulforhodamine B assay; format: functional; conditions: RPMI-8226, 48 h
[27] = test system: K562; assay: Antiproliferative activity against human K562 cells assessed as growth inhibition after 48 hrs by sulforhodamine B assay; format: functional, cell-based; conditions: K562, 48 h; for pIC50: read-out: IC50
[28] = test system: HL-60(TB); assay: Antiproliferative activity against human HL-60(TB) cells assessed as growth inhibition after 48 hrs by sulforhodamine B assay; format: functional; conditions: HL-60, 48 h
[29] = test system: CCRF-CEM; assay: Antiproliferative activity against human CCRF-CEM cells assessed as growth inhibition after 48 hrs by sulforhodamine B assay; format: functional
[30] = test system: Hs-578T; assay: Antiproliferative activity against human Hs578T cells assessed as growth inhibition after 48 hrs by sulforhodamine B assay; format: functional
[31] = test system: T47D; assay: Antiproliferative activity against human T47D cells assessed as growth inhibition after 48 hrs by sulforhodamine B assay; format: functional
[32] = test system: Erythrocyte; assay: (§1) Haemolytic activity in human erythrocytes assessed as induction of hemolysis at 2.5 mM after 30 mins relative to H202; format: cell-based; conditions: erythrocyte, 0.5 h, 2500 µM
[33] = test system: Erythrocyte; assay: (§2) Haemolytic activity in human erythrocytes assessed as induction of hemolysis at 1.25 mM after 30 mins relative to H202; format: cell-based; conditions: erythrocyte, 0.5 h, 1250 µM
[34] = test system: Erythrocyte; assay: Haemolytic activity in human erythrocytes assessed as induction of hemolysis at 0.625 mM after 30 mins relative to H202; format: cell-based; conditions: erythrocyte, 0.5 h, 625 µM
[35] = Antioxidant activity assessed as DPPH radical scavenging activity incubated in dark for 30 mins by spectrophotometric method relative to ascorbic acid; format: functional
[36] = Antioxidant activity assessed as ABTS radical scavenging activity by spectrophotometric method relative to ascorbic acid; format: functional
[37] = test system: HCT-116; assay: Induction of apoptosis in human HCT116 cells assessed as increase in caspase 9 mRNA expression at 100 nM after 6 hrs hrs by SYBR green dye-based qRT-PCR analysis relative to control; format: functional
[38] = test system: HCT-116; assay: Reduction in CDK1 mRNA expression in human HCT116 cells at 100 nM after 6 hrs hrs by SYBR green dye-based qRT-PCR analysis relative to control; format: functional; conditions: HCT-116, 6 h
[39] = as §1; format: cell-based, Erythrocyte; conditions: erythrocytes, read-out: Activity
[40] = as §2; format: cell-based, Erythrocyte; conditions: erythrocytes, read-out: Activity

In the case of `N=C(N)c1ccc(-c2ccc(-c3cncc4ccccc34)s2)s1`, the pIC50 [1] was less than 4.00, the “Selectivity Index” value [2] was greater than 74.6 and the inhibition of growth at 10 µM [3] was -59.2%. The GI50 [4] was 1.48 µM, the GI50 [5] was 1.69 µM and the GI50 [6] was 1.68 µM. The GI50 [7] was 1.91 µM, the GI50 [8] was 2.31 µM and the GI50 [9] was 1.74 µM. It also gave a GI50 [10] of 1.64 µM, a GI50 [11] of 2 µM and a GI50 [12] of 1.62 µM. It also gave a GI50 [13] of 1.72 µM, a GI50 [14] of 2.17 µM and a GI50 [15] of 1.8 µM. It also gave a GI50 [16] of 1.08 µM, a GI50 [17] of 1.51 µM and a GI50 [18] of 0.56 µM. The GI50 [19] was 1.61 µM, the GI50 [20] was 1.53 µM and the GI50 [21] was 1.65 µM. The GI50 [22] was 1.66 µM, the GI50 [23] was 1.91 µM and the GI50 [24] was 1.37 µM. The GI50 [25] was 0.27 µM, the GI50 [26] was 1.78 µM and the pIC50 [27] was 6.62. The IC50 ([27]; read-out: pIC50 (converted)) was 38000 µM, the GI50 [28] was 1.92 µM and the GI50 [29] was 0.36 µM. For the same compound, the GI50 [30] was 2.22 µM, the GI50 [31] was 1.52 µM and the Activity [32] was “Non-Toxic”. The Activity [33] was “Non-Toxic”, the Activity [34] was “Non-Toxic” and the fold change (FC) [35] was 0.6. For the same compound, the fold change (FC) [36] was 0.8, the “fold change (FC)” value [37] was 1.27 and the inhibition at 0.1 µM [38] was 84%.

With `N=C(N)c1ccc(-c2ccc(-c3ccc(Cl)cc3)o2)o1` the pIC50 [1] was 5.00, the “Selectivity Index” value [2] was 5.5 and the inhibition of growth at 10 µM [3] was -2.02%. The GI50 [4] was 1.89 µM, the GI50 [5] was 2.12 µM and the GI50 [6] was 1.8 µM. The GI50 [7] was 1.77 µM, the GI50 [8] was 1.89 µM and the GI50 [9] was 1.81 µM. For the same compound, the GI50 [10] was 1.83 µM, the GI50 [11] was 2.08 µM and the GI50 [12] was 1.85 µM. The GI50 [13] was 1.88 µM, the GI50 [14] was 1.86 µM and the GI50 [15] was 1.83 µM. The GI50 [16] was 1.7 µM, the GI50 [17] was 1.63 µM and the GI50 [18] was 1.68 µM. It also gave a GI50 [19] of 1.9 µM, a GI50 [20] of 1.96 µM and a GI50 [21] of 1.73 µM. It also gave a GI50 [22] of 1.67 µM, a GI50 [23] of 2.19 µM and a GI50 [25] of 1.63 µM. It also gave a GI50 [26] of 2.12 µM, a pIC50 [27] of 5.86 and a GI50 [28] of 1.87 µM. For the same compound, the GI50 [29] was 1.96 µM, the GI50 [30] was 2 µM and the GI50 [31] was 1.71 µM. The hemolysis at 0.5 h, 2500 µM [39] was 41.3%, the hemolysis at 0.5 h, 1250 µM [40] was 14% and the Activity [34] was “Non-Toxic”. For the same compound, the fold change (FC) [35] was 0.2, the fold change (FC) [36] was 0.2 and the “fold change (FC)” value [37] was 4.

For `N=C(N)c1ccc(-c2ccc(-c3cc(Cl)cc(Cl)c3)s2)s1`, the pIC50 [1] was 4.01, the “Selectivity Index” value [2] was 50.9 and the inhibition of growth at 10 µM [3] was -28.6%. It also gave a GI50 [4] of 1.75 µM, a GI50 [5] of 1.53 µM and a GI50 [6] of 2.06 µM. It also gave a GI50 [7] of 1.97 µM, a GI50 [8] of 1.92 µM and a GI50 [9] of 1.9 µM. The GI50 [10] was 1.83 µM, the GI50 [11] was 2.24 µM and the GI50 [12] was 2.02 µM. For the same compound, the GI50 [13] was 1.86 µM, the GI50 [14] was 2.11 µM and the GI50 [15] was 1.96 µM. It also gave a GI50 [16] of 1.92 µM, a GI50 [17] of 1.75 µM and a GI50 [18] of 1.65 µM. The GI50 [19] was 1.61 µM, the GI50 [20] was 1.75 µM and the GI50 [21] was 1.91 µM. It also gave a GI50 [22] of 1.66 µM, a GI50 [23] of 30.8 µM and a GI50 [25] of 1.06 µM. The GI50 [26] was 2.33 µM, the pIC50 [27] was 5.89 and the GI50 [28] was 1.66 µM. For the same compound, the GI50 [29] was 2.14 µM, the GI50 [30] was 2.15 µM and the GI50 [31] was 1.8 µM. For the same compound, the Activity [32] was “Non-Toxic”, the Activity [33] was “Non-Toxic” and the Activity [34] was “Non-Toxic”. For the same compound, the fold change (FC) [35] was 0.3, the fold change (FC) [36] was 0.4 and the “fold change (FC)” value [37] was 1.54. The inhibition at 0.1 µM [38] was 79%.
